Where two headings read alike, the source gives them in different places.
Legend:
[1] = tested on: Hereditary Spastic Paraparesis, homozygous TECPR2 mutations; experiment: Treatment of a patient with Hereditary Spastic Paraparesis (Example 2); type: in vivo; settings: human patient, daily oral doses, after 30 days of treatment
Description: A human patient is tested and found to be homozygous for TECPR2 mutations and suffering from neurodegenerative issues related to Hereditary Spastic Paraparesis. The patient is given daily oral doses of dexibuprofen to reduce the effects of the disease.

[2] = in vivo; cited from earlier work
[3] = cited from earlier work; for safety / side effect profile compared to ibuprofen: published studies, incl. pediatric population

In the case of `CC(C)Cc1ccc([C@H](C)C(=O)O)cc1` [Dexibuprofen, (S)-a-methyl-4-(2-methylpropyl)benzeneacetic acid], the “neurodegenerative issues relating to TECPR2 mutations” value [1] is listed as “reduced neurodegenerative issues”, the “crossing of the blood brain barrier (BBB)” value [2] is listed as “crosses the blood brain barrier” and the “safety profile compared to acetaminophen” value ([3]; in vivo) is listed as “superior safety profile to acetaminophen”. The “safety / side effect profile compared to ibuprofen” value [3] was “extremely similar to ibuprofen” and the “safety / side effect profile compared to ibuprofen” value ([3]; listed as dexibuprofen) was “did not note safety differences”.

For `CC(C)Cc1ccc(C(C)C(=O)O)cc1` (stereo not drawn) [ibuprofen], the “crossing of the blood brain barrier (BBB)” value [2] is given as “crosses the blood brain barrier”.

Reference: patent US20240173279A1, “Method of Treatment for Autophagy Diseases by Administration of Dexibuprofen and Use of Dexibuprofen for Preparation of a Medicament for Same” (JEM THERAPEUTICS PBC, priority 2021, published 2024)
